Molecular target: recombinant HCV NS5B (HCV RNA-dependent RNA polymerase) (Hepatitis C virus genotype 1b, UniProt P26663)
Experiment: biochemical
Details: HCV polymerase activity, list of compounds of Example 27; read-out: IC50 (polymerase activity)

recombinant HCV NS5B (HCV RNA-dependent RNA polymerase), sequence (P26663 2420-3010 limits assumed): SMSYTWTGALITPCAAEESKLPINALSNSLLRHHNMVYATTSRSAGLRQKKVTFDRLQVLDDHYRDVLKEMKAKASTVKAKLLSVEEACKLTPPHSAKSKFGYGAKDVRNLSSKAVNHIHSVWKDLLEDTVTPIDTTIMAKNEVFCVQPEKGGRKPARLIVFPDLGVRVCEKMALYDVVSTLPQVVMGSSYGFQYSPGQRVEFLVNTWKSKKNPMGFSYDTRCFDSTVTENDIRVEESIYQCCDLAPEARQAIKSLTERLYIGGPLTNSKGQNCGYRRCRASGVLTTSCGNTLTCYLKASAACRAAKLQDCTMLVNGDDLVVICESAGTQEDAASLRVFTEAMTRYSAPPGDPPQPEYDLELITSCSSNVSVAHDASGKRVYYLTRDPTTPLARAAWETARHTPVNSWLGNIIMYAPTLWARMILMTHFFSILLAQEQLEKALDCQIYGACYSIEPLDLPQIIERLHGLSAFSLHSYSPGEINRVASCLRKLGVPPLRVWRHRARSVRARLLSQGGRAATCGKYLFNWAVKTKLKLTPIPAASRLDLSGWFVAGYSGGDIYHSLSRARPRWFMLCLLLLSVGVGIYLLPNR

CC(C)N(C(=O)c1ccc(Cl)cc1Cl)c1cc(-c2ccc3[nH]ccc3c2)sc1C(=O)O [Compound 488, 3-[(2,4-DICHLORO-BENZOYL)- ISOPROPYL-AMINO]-5-(1H-INDOL-5-YL)- THIOPHENE-2-CARBOXYLIC ACID] and CC(C)N(C(=O)c1ccc(Cl)cc1Cl)c1cc(-c2ccc(-c3nnn[nH]3)cc2)sc1C(=O)O [Compound 430, 3-[(2,4-DICHLORO-BENZOYL)- ISOPROPYL-AMINO]-5-[4-(1#H!- TETRAZOL-5-YL)-PHENYL]-THIOPHENE- 2-CARBOXYLIC ACID] cannot be ordered by IC50: less than 5 µM for the first, less than 5 µM for the second.

O=C(O)c1sc(-c2ccccc2)cc1N(C(=O)c1ccc(Cl)cc1Cl)C1CCCC[C@@H]1O (stereo in doubt) [Compound 538, 3-[(2,4-DICHLORO-BENZOYL)-(2- HYDROXY-CYCLOHEXYL)-AMINO]-5- PHENYL-THIOPHENE-2-CARBOXYLIC ACID] and O=C(O)c1sc(-c2ccccc2)cc1N(C(=O)c1ccc(Cl)cc1Cl)C1CCCCC1 [Compound 553, 3-[CYCLOHEXYL-(2,4-DICHLORO- BENZOYL)-AMINO]-5-PHENYL- THIOPHENE-2-CARBOXYLIC ACID] cannot be ordered by IC50: less than 5 µM for the first, less than 5 µM for the second.

Compared with COCC(=O)N(Cc1ccccc1)c1cc(-c2ccccc2)sc1C(=O)O [Compound 452, 3-[BENZYL-(2-METHOXY-ACETYL)- AMINO]-5-PHENYL-THIOPHENE-2- CARBOXYLIC ACID], O=C(O)c1sc(-c2ccccc2)cc1N(Cc1ccccc1Cl)C(=O)C1CC1 [Compound 423, 3-[(2-CHLORO-BENZYL)- CYCLOPROPANECARBONYL-AMINO]-5- PHENYL-THIOPHENE-2-CARBOXYLIC ACID] is higher in IC50: less than 5 µM for the first, greater than 20 µM for the second. The first is the more potent here.

First: C=CCN(C(=O)CCC(C)C)c1cc(-c2ccccc2)sc1C(=O)O [Compound 400, 3-[ALLYL-(4-METHYL-PENTANOYL)- AMINO]-5-PHENYL-THIOPHENE-2- CARBOXYLIC ACID]
Second: Cc1ccc(CN(C(=O)C2CCC2)c2cc(-c3ccccc3)sc2C(=O)O)cc1 [Compound 435, 3-[CYCLOBUTANECARBONYL-(4- METHYL-BENZYL)-AMINO]-5-PHENYL- THIOPHENE-2-CARBOXYLIC ACID]
The IC50 of the first is higher: 5 to 20 µM for the first, less than 5 µM for the second.

CC([C@H](O[Si](C)(C)C(C)(C)C)c1ccccc1)N(C(=O)c1ccc(Cl)cc1Cl)c1cc(-c2ccccc2)sc1C(=O)O (stereo in doubt) [Compound 556, 3-[[2-(TERT-BUTYL-DIMETHYL- SILANYLOXY)-1-METHYL-2-PHENYL- ETHYL]-(2,4-DICHLORO-BENZOYL)- AMINO]-5-PHENYL-THIOPHENE-2- CARBOXYLIC ACID] and O=C(O)c1sc(-c2ccccc2)cc1N(C(=O)c1ccc(Cl)cc1Cl)C1CCNC1 (centres unmarked) [Compound 503, 3-[(2,4-DICHLORO-BENZOYL)- PYRROLIDIN-3-YL-AMINO]-5-PHENYL- THIOPHENE-2-CARBOXYLIC ACID] fall in the same range of IC50: 5 to 20 µM for the first, 5 to 20 µM for the second.

CC(=O)N1CCC(N(C(=O)c2ccc(Cl)cc2Cl)c2cc(-c3ccccc3)sc2C(=O)O)CC1 [Compound 429, 3-[(1-ACETYL-PIPERIDIN-4-YL)-(2,4- DICHLORO-BENZOYL)-AMINO]-5- PHENYL-THIOPHENE-2-CARBOXYLIC ACID] and O=C(O)c1sc(-c2ccccc2)cc1N(Cc1ccc(C(F)(F)F)cc1)C(=O)C1CCCCC1 [Compound 436, 3-[CYCLOHEXANECARBONYL-(4- TRIFLUOROMETHYL-BENZYL)-AMINO]-5- PHENYL-THIOPHENE-2-CARBOXYLIC ACID] cannot be ordered by IC50: less than 5 µM for the first, less than 5 µM for the second.

CC1CCC(C(=O)N(c2cc(-c3ccc(C(F)(F)F)cc3)sc2C(=O)O)C(C)C)CC1 (centres unmarked) [Compound 575, 3-[ISOPROPYL-(4-METHYL- CYCLOHEXANECARBONYL)-AMINO]-5-(4- TRIFLUOROMETHYL-PHENYL)- THIOPHENE-2-CARBOXYLIC ACID] and CC1CCC(C(=O)N(c2cc(C3CCN(C)CC3)sc2C(=O)O)C(C)C)CC1 (centres unmarked) [Compound 536, 3-[ISOPROPYL-(4-METHYL- CYCLOHEXANECARBONYL)-AMINO]-5-(1- METHYL-PIPERIDIN-4-YL)-THIOPHENE-2- CARBOXYLIC ACID] cannot be ordered by IC50: less than 5 µM for the first, less than 5 µM for the second.

Same assay, conditions: related polymerase activity (Example 27 list); read-out: IC50

Cc1ccc(C(=O)N(c2cc(-c3cccc(C)c3)sc2C(=O)O)C(C)C)cc1 [Compound 305, 3-[ISOPROPYL-(4-METHYL-BENZOYL)- AMINO]-5-M-TOLYL-THIOPHENE-2- CARBOXYLIC ACID] and Cc1ccc(C(=O)N(c2cc(-c3ccccc3)sc2C(=O)O)C(C)C)cc1F [Compound 331, 3-[(3-FLUORO-4-METHYL-BENZOYL)- ISOPROPYL-AMINO]-5-PHENYL- THIOPHENE-2-CARBOXYLIC ACID] cannot be ordered by IC50: less than 5 µM for the first, less than 5 µM for the second.

Compared with O=C(O)c1sc(-c2ccccc2)cc1NS(=O)(=O)c1ccccc1CCl [Compound 189, 3-(2-CHLOROMETHYL-BENZENESULFONYLAMINO)-5-PHENYL-THIOPHENE-2-CARBOXYLIC ACID], O=C(O)c1sc(-c2ccccc2)cc1NS(=O)(=O)c1ccc(Cl)s1 [Compound 37, 3-(5-CHLORO-THIOPHENE-2-SULFONYLAMINO)-5-PHENYL-THIOPHENE-2-CARBOXYLIC ACID] is lower in IC50: 5 to 20 µM for the first, less than 5 µM for the second. The second is the more potent here.

CC(C)N(C(=S)c1ccc(Cl)cc1Cl)c1cc(-c2ccccc2)sc1C(=O)O [Compound 297, 3-[(2,4-DICHLORO-THIOBENZOYL)-ISOPROPYL-AMINO]-5-PHENYL-THIOPHENE-2-CARBOXYLIC ACID] and CC(C)N(C(=O)c1ccc(Cl)cc1Br)c1cc(-c2ccccc2)sc1C(=O)O [Compound 306, 3-[(2-BROMO-4-CHLORO-BENZOYL)- ISOPROPYL-AMINO]-5-PHENYL- THIOPHENE-2-CARBOXYLIC ACID] cannot be ordered by IC50: less than 5 µM for the first, less than 5 µM for the second.

Cc1ccccc1S(=O)(=O)Nc1cc(-c2cn[nH]c2)sc1C(=O)O [Compound 170, 5-(1H-PYRAZOL-4-YL)-3-(TOLUENE-2-SULFONYLAMINO)-THIOPHENE-2-CARBOXYLIC ACID] and Cc1ccccc1S(=O)(=O)Nc1cc(-c2cccc(O)c2)sc1C(=O)O [Compound 171, 5-(3-HYDROXY-PHENYL)-3-(TOLUENE-2-SULFONYLAMINO)-THIOPHENE-2-CARBOXYLIC ACID] cannot be ordered by IC50: less than 5 µM for the first, less than 5 µM for the second.

CC(=O)c1ccc(-c2cc(NS(=O)(=O)c3ccc(Cl)cc3)c(C(=O)O)s2)cc1 [Compound 238, 5-(4-ACETYL-PHENYL)-3-(4-CHLORO-BENZENESULFONYLAMINO)-THIOPHENE-2-CARBOXYLIC ACID] and Cc1ccc(S(=O)(=O)Nc2cc(-c3ccc(C(=O)O)cc3)sc2C(=O)O)c(C)c1 [Compound 332, 5-(4-CARBOXY-PHENYL)-3-(2,4-DIMETHYL- BENZENESULFONYLAMINO)- THIOPHENE-2- CARBOXYLIC ACID] cannot be ordered by IC50: less than 5 µM for the first, less than 5 µM for the second.

CN(C(=O)c1sccc1Cl)c1cc(-c2ccccc2)sc1C(=O)O [Compound 186, 3-[(3-CHLORO-THIOPHENE-2-CARBONYL)-METHYL-AMINO]-5-PHENYL-THIOPHENE-2-CARBOXYLIC ACID] and Cc1csc(C(=O)N(C)c2cc(-c3ccccc3)sc2C(=O)O)c1 [Compound 293, 3-[METHYL-(4-METHYL-THIOPHENE-2-CARBONYL)-AMINO]-5-PHENYL-THIOPHENE-2-CARBOXYLIC ACID] fall in the same range of IC50: 5 to 20 µM for the first, 5 to 20 µM for the second.

Cc1cc(S(=O)(=O)Nc2cc(-c3ccc(F)cc3)sc2C(=O)O)c(C)cc1Cl [Compound 8, 3-(4-CHLORO-2,5-DIMETHYL-BENZENESULFONYLAMINO)-5-(4-FLUORO-PHENYL)-THIOPHENE-2-CARBOXYLIC ACID] and Cc1ccccc1S(=O)(=O)Nc1cc(-c2ccc(CO)cc2)sc1C(=O)O [Compound 125, 5-(4-HYDROXYMETHYL-PHENYL)-3-(TOLUENE-2-SULFONYLAMINO)-THIOPHENE-2-CARBOXYLIC ACID] cannot be ordered by IC50: less than 5 µM for the first, less than 5 µM for the second.

O=C(O)c1sc(-c2ccccc2)cc1N(C(=O)c1ccc(Cl)cc1Cl)c1ccccc1 [Compound 208, 3-[(2,4-DICHLORO-BENZOYL)-PHENYL-AMINO]-5-PHENYL-THIOPHENE-2-CARBOXYLIC ACID] and Cc1ccc(C(=O)N(Cc2ccccc2Cl)c2cc(-c3ccccc3)sc2C(=O)O)cc1 [Compound 345, 3-[(2-CHLORO-BENZYL)-(4-METHYL- BENZOYL)-AMINO]-5-PHENYL- THIOPHENE-2-CARBOXYLIC ACID] cannot be ordered by IC50: less than 5 µM for the first, less than 5 µM for the second.

Cc1ccc(C(=O)N(C)c2cc(-c3ccc(O)cc3)sc2C(=O)O)cc1 [Compound 215, 5-(4-HYDROXY-PHENYL)-3-[METHYL-(4-METHYL-BENZOYL)-AMINO]-THIOPHENE-2-CARBOXYLIC ACID] and Cc1ccc(C(=O)N(C)c2cc(-c3cccc([N+](=O)[O-])c3)sc2C(=O)O)cc1 [Compound 196, 3-[METHYL-(4-METHYL-BENZOYL)-AMINO]-5-(3-NITRO-PHENYL)-THIOPHENE-2-CARBOXYLIC ACID] cannot be ordered by IC50: less than 5 µM for the first, less than 5 µM for the second.

O=C(O)c1sc(-c2ccccc2)cc1NC(=O)N1CCN(c2ccc([N+](=O)[O-])cc2)CC1 [Compound 114, 3-{[4-(4-NITRO-PHENYL)-PIPERAZINE-1-CARBONYL]-AMINO}-5-PHENYL-THIOPHENE-2-CARBOXYLIC ACID] and CN(C(=O)Cc1ccc(F)cc1)c1cc(-c2ccccc2)sc1C(=O)O [Compound 173, 3-{[2-(4-FLUORO-PHENYL)-ACETYL]-METHYL-AMINO}-5-PHENYL-THIOPHENE-2-CARBOXYLIC ACID] cannot be ordered by IC50: less than 5 µM for the first, less than 5 µM for the second.

Cc1ccccc1S(=O)(=O)Nc1cc(-c2cnn(S(=O)(=O)N(C)C)c2)sc1C(=O)O [Compound 163, 5-(1-DIMETHYLSULFAMOYL-1H-PYRAZOL-4-YL)-3-(TOLUENE-2-SULFONYLAMINO)-THIOPHENE-2-CARBOXYLIC ACID] and Cc1ccc(S(=O)(=O)Nc2c(C(=O)O)sc(-c3ccccc3)c2C)c(C)c1 [Compound 308, 3-(2,4-DIMETHYL- BENZENESULFONYLAMINO)-4-METHYL- 5-PHENYL-THIOPHENE-2-CARBOXYLIC ACID] fall in the same range of IC50: 5 to 20 µM for the first, 5 to 20 µM for the second.

Going from O=C(O)c1sc(-c2ccccc2)cc1N(Cc1ccc(-c2cccc(C(F)(F)F)c2)o1)C(=O)c1ccc(Cl)cc1Cl [Compound 4, 3-{(2,4-DICHLORO-BENZOYL)-[5-(3-TRIFLUOROMETHYL-PHENYL)-FURAN-2-YLMETHYL]-AMINO}-5-PHENYL-THIOPHENE-2-CARBOXYLIC ACID] to C=CCN(C(=O)Cc1ccc2ccccc2c1)c1cc(-c2ccccc2)sc1C(=O)O [Compound 347, 3-[ALLYL-(2-NAPHTHALEN-2-YL-ACETYL)- AMINO]-5-PHENYL-THIOPHENE-2- CARBOXYLIC ACID], the IC50 rises from less than 5 µM to greater than 20 µM.

— patent US6881741B2 (ViroChem Pharma Inc., priority 2001, dated 2005)
